Assays:
[1] = Time course analysis of thymidine phosphorylation by cell-free translation products; assay type: biochemical; details: for TK activity (thymidine phosphorylation) in time course compared to wild-type TK: cell-free translation products, 30° C., adjusted to protein synthesis levels; for classification on the basis of TK activities: high-activity or low-activity subset
Procedure: The transcripts described above were then used in a rabbit reticulocyte lysate cell-free translation system to synthesize active enzymes. Cell-free translation was according to Promega using nuclease-treated rabbit reticulocyte lysates.
For the high-activity mutant enzymes, unlabeled translation products were diluted 1/9 and incubated for 0, 5, 10, 20, or 30 minutes at 30° C. The TK activity results (counts per minute) were adjusted to reflect equivalent protein synthesis levels using the corresponding TCA-precipitable counts (^35S cpm).
The low-activity mutants were diluted 1/5, and the rate of phosphorylation as a function of time was also determined.

[2] = system: E. coli KY895; assay: Secondary screen: colony formation on acyclovir, AZT, LB and TK selection plates; assay type: cell-based; parameters: key to ACV / AZT / LB / 37° C. / 42° C.: ++: the same number of colonies were observed as compared to control plates; +: fewer (<20% those observed with pMCC) and generally smaller (˜50% smaller diameter) colonies were observed as compared to control plates; −: no colonies were observed; details: for AZT: colonies on AZT plates: 1 μg/mL thymidine + 0.05 μg/mL AZT; for AZT / ACV: 37° C.; for LB: colonies on LB+carb50 plates; for 37° C.: colonies on TK selection plates at 37° C.; for 42° C.: colonies on TK selection plates at 42° C.; for ACV: colonies on acyclovir plates: 1 μg/mL thymidine + 1 μg/mL acyclovir; for utilization of nucleoside analogues over thymidine in comparison to the wild-type: ACV and AZT plates
Procedure: The ability of pMCC (KY895) and 35 log-phase mutant pMDC (KY895) cultures to produce colonies on acyclovir (“ACV”) or AZT plates was determined in a secondary screen as described below. Briefly, log-phase cultures of TK positive clones were serially diluted in 0.9% NaCl and spread onto acyclovir or AZT plates (TK selection plates except 1 μ/mL thymidine+1 μg/mL acyclovir or 0.05 μg/mL AZT). Mutant cultures were also spread onto duplicate TK selection and LB+carb^50 plates. One set of TK selection plates and LB+carb^50 plates were incubated at 42° C. All other plates were incubated at 37° C. After 16-24 hours the plates were scored.
Briefly, only mutants that gave results which differed from those observed with the wild-type pMCC (KY895) are shown.

[3] = assay type: biochemical; details: for thermal stability compared to HSVTKII after 42° C. preincubation: cell-free translation products
Procedure: To substantiate this observation, cell-free translation products were incubated at 42° C. for increasing times prior to being assayed for enzyme activity. Briefly, cell free translation (“CFT”) products of each high-activity mutant, -RNA, and HSVTKII samples were diluted 1/9 and incubated for 0, 5, 10, and 20 minutes at 42° C. The preincubated samples were then assayed for 5 minutes (P155A/F161V and F161I) or 20 minutes (-RNA, HSVTKII, F161C, and D162E). The percent of activity remaining was determined with the untreated samples set at 100%. […] Because F161C lost greater than 90% of enzyme activity within the first 20 minutes at 42° C., shorter incubation periods at 42° C. were performed (0, 5, 10, and 20 minutes).
Low-activity mutant CFT products were diluted 1/5 and incubated for 0, 20, 40, or 60 minutes at 42° C. The preincubated samples were then assayed in triplicate for the thymidine phosphorylation for 60 minutes. The percent of activity remaining was determined using the untreated (time 0) sample as 100%.

[4] = Substrate specificity assay, thymidine; assay type: biochemical; details: cell-free translation products, 2 hours at 30° C.
Procedure: (§1) Three of the mutants (P155A/F161V, F161I and F161C) were assayed in triplicate for the relative levels of phosphorylation using thymidine, deoxycytidine, ACV, GCV, or AZT as substrates. Briefly, forty-eight […] of each tritiated substrate was used in each assay reaction. Translation products were diluted for each nucleoside assay as follows (translation/H2O). 1/100, thymidine; 2/3, deoxycytidine, GCV, and AZT; 4/1, ACV. Each set of assays was incubated for 2 hours at 30° C. and the amount of phosphorylated product determined.

[5] = Substrate specificity assay, deoxycytidine; assay type: biochemical; details: cell-free translation products, 2 hours at 30° C.
Procedure: as §1

[6] = Substrate specificity assay, ACV; assay type: biochemical; details: cell-free translation products, 2 hours at 30° C.
Procedure: as §1

Row | Substance | TK activity (thymidine phosphorylation) in time course compared to wild-type TK [1] | classification on the basis of TK activities [1] | ability to form colonies on TK selection plates at 42° C. [2] | AZT [2] | LB [2] | 37° C. [2] | 42° C. [2] | ACV [2] | thermal stability compared to HSVTKII after 42° C. preincubation [3] | utilization of nucleoside analogues over thymidine in comparison to the wild-type [2] | phosphorylation of thymidine relative to HSVTKII [4] | phosphorylation of deoxycytidine over the wild-type enzyme [5] | phosphorylation of ACV over HSVTKII [6] | activity loss after only 5 minutes at 42° C. ([3]; cell-free translation product) | loss of enzyme activity within the first 20 minutes at 42° C. ([3]; cell-free translation product)
1 | D162E | no difference in activities when compared to the wild-type TK | high-activity |  |  |  |  |  |  |  |  |  |  |  |  | 
2 | F161L | moderate ability to phosphorylate thymidine, albeit at a much reduced rate from HSVTKII | low-activity | unable to form colonies | ++ | ++ | ++ | − | ++ | more thermolabile that HSVTKII |  |  |  |  |  | 
3 | P155A/F161V | statistically higher affinity for thymidine than the wild-type TK | high-activity |  | + (fewer (<20% those observed with pMCC) and generally smaller (˜50% smaller diameter) colonies were observed as compared to control plates) | ++ | ++ | ++ | ++ |  | preferentially utilize one or both nucleoside analogues over thymidine | 2.6 fold | 2.8 fold | 2.4 fold |  | 
4 | D162G |  | low-activity |  |  |  |  |  |  | equivalent to HSVTKII |  |  |  |  |  | 
5 | F161I/R163H |  | low-activity | severely reduced ability to form colonies | ++ | ++ | ++ | + (fewer (<20% those observed with pMCC) and generally smaller (˜50% smaller diameter) colonies were observed as compared to control plates) | ++ | equivalent to HSVTKII |  |  |  |  |  | 
6 | F161I | statistically higher affinity for thymidine than the wild-type TK | high-activity |  | + (fewer (<20% those observed with pMCC) and generally smaller (˜50% smaller diameter) colonies were observed as compared to control plates) | ++ | ++ | ++ | + (fewer (<20% those observed with pMCC) and generally smaller (˜50% smaller diameter) colonies were observed as compared to control plates) |  | preferentially utilize one or both nucleoside analogues over thymidine | 2.2 fold | 1.9 fold |  |  | 
7 | F161C | no difference in activities when compared to the wild-type TK | high-activity |  | − | ++ | ++ | ++ | + (fewer (<20% those observed with pMCC) and generally smaller (˜50% smaller diameter) colonies were observed as compared to control plates) | exceptionally thermolabile | preferentially utilize one or both nucleoside analogues over thymidine |  | 2.8 fold | 2 fold | ~85% | greater than 90%
8 | R163P/H164Q |  | low-activity | unable to form colonies | + (fewer (<20% those observed with pMCC) and generally smaller (˜50% smaller diameter) colonies were observed as compared to control plates) | ++ | ++ | − | + (fewer (<20% those observed with pMCC) and generally smaller (˜50% smaller diameter) colonies were observed as compared to control plates) | equivalent to HSVTKII | preferentially utilize one or both nucleoside analogues over thymidine |  |  |  |  | 
